Where two headings read alike, the source gives them in different places.
Assays:
[1] = biological target: T1, Recombinant human PKC-theta (His-tagged 362-706) (Homo sapiens, UniProt Q04759); assay: PKC-theta inhibition assay (HTRF KinEASE kit); format: biochemical; settings: ATP 6.5 μM, STK substrate 525 nM
T1 construct: Recombinant human PKC-theta (His-tagged 362-706); His
Procedure, shortened: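 IC50 values were from 4-parameter logistic fits of percent inhibition, based on acceptor/donor HTRF ratios over 10 semi-log compound doses. Kinase reactions, started with substrate plus ATP, ran 30 min at 25 °C in buffer supplemented with 10 mM MgCl2, 1 mM DTT and 0.1% Tween 20; detection lasted 2 h.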

[2] = test system: IL-2 secretion by human effector memory T cells (TEM); assay: Effector memory T cells IL-2 release assay (CD3/CD28 stimulation, HTRF IL-2 detection); format: cell-based; settings: 24 h; for IC50: Homo sapiens, T-cell
Procedure, shortened: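 Human effector memory T cells from healthy-donor buffy coats were exposed in triplicate to ten semi-log doses of compound in 0.1% DMSO. The cells were stimulated and incubated 24 h at 37 °C. Secreted IL-2 in the supernatant was measured by HTRF.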

[3] = biological target: T2, Recombinant human PKC-delta (His-tagged 345-676) (Homo sapiens, UniProt Q05655); assay: PKC-delta inhibition assay (HTRF KinEASE kit); format: biochemical; settings: ratio, PKC-theta vs PKC-delta HTRF; for PKC-theta/PKC-delta selectivity (binned): binned A to G
T2 construct: PKC-delta (His-tagged 345-676); His
T2 sequence (Q05655 345-676): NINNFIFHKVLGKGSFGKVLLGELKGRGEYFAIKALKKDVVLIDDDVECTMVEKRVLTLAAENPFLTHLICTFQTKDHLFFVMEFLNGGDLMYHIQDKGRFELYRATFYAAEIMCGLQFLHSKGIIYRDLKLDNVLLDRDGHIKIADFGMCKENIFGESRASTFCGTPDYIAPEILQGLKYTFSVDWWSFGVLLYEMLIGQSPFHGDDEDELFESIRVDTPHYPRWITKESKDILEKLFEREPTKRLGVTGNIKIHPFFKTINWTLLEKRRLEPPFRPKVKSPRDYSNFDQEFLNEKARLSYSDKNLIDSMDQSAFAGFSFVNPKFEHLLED

[4] = binned A to H, read-out: PKC-theta HTRF pIC50 (binned) (converted)
[5] = read-out: PKC-theta HTRF pIC50 (converted)
[6] = binned A to G, read-out: PKC-theta IL2 pIC50 (binned) (converted)
[7] = read-out: PKC-theta IL2 pIC50 (converted)

T1 sequence (Q04759 362-706): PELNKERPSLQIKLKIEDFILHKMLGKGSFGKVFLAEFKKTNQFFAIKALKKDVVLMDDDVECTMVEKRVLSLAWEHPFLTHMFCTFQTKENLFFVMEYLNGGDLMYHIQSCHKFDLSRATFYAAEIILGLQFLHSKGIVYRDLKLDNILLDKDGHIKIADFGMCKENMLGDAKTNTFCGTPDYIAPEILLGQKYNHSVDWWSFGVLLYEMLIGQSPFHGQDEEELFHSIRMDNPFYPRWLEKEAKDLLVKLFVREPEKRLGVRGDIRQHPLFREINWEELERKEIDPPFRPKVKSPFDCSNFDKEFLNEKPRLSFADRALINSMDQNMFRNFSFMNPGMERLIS

Row | Structure (SMILES) | IC50 [1, 4] | IC50 [1, 5] | IC50 [2, 6] | IC50 [2, 7] | PKC-theta/PKC-delta selectivity [3] | PKC-theta/PKC-delta selectivity (binned) [3] | PKC-theta IL2 pIC50 [2] | PKC-theta IL2 pIC50 (binned) ([2]; binned A to G)
1 | C[C@@H]1CN(c2cc(Cl)cc(-c3ccnc4c3[C@](C)(O)C(=O)N4)n2)CCN1 (single isomer, unassigned) [Example 89] | 0.001 to 0.00316 µM | 0.00316 µM | 0.0316 to 0.1 µM | 0.0631 µM | 17 | D (a ratio of between 10 and 20) | – | –
2 | C[C@@H]1CN(c2cc(C(F)(F)F)cc(-c3ccnc4c3C(C)(C)C(=O)N4)n2)[C@H](C)CN1 [Example 178] | 0.001 to 0.00316 µM | 0.00316 µM | 0.0316 to 0.1 µM | 0.0631 µM | 20 | D (a ratio of between 10 and 20) | – | –
3 | CC[C@@]1(O)C(=O)Nc2nccc(-c3cc(C(F)(F)F)cc(N4CCNC[C@H]4C)n3)c21 (single isomer, unassigned) [Example 166] | 0.001 to 0.00316 µM | 0.00316 µM | 0.01 to 0.0316 µM | 0.0316 µM | 6 | E (a ratio of between 5 and 10) | – | –
4 | C[C@@H]1CCNCCN1c1cc(C(F)(F)F)cc(-c2ccnc3c2C(C)(C)C(=O)N3)n1 [Example 188] | 0.00316 to 0.01 µM | 0.00631 µM | 0.0316 to 0.1 µM | 0.1 µM | 28 | C (a ratio of between 20 and 30) | – | –
5 | C[C@H]1CN(c2cc(-c3ccnc4c3[C@@](C)(O)C(=O)N4)cc(C(F)(F)F)c2)CCN1 (single isomer, unassigned) [Example 82] | 0.316 to 1 µM | 1 µM | – | – | 3 | F (a ratio of between 1 and 5) | 5.4 | G (a measured pIC50<6.0)
6 | CC1(O)C(=O)Nc2nccc(-c3cc(N4CCNCC4)ccc3F)c21 (stereo not drawn) [Example 60] | 0.1 to 0.316 µM | 0.126 µM | > 1 µM | 1.58 µM | 4 | F (a ratio of between 1 and 5) | – | –
7 | CC1(C)CN(c2cc(C(F)(F)F)cc(-c3ccnc4c3[C@](C)(O)C(=O)N4)n2)CCN1 (single isomer, unassigned) [Example 134] | 0.00316 to 0.01 µM | 0.00794 µM | 0.1 to 0.316 µM | 0.1 µM | 10 | D (a ratio of between 10 and 20) | – | –
8 | CC1(C)C(=O)Nc2nccc(-c3cc(C(F)(F)F)cc(N4CCNC(C(C)(C)O)C4)n3)c21 (stereo not drawn) [Example 124] | 0.00316 to 0.01 µM | 0.00398 µM | 0.1 to 0.316 µM | 0.158 µM | 16 | D (a ratio of between 10 and 20) | – | –
9 | CC1(C)C(=O)Nc2nccc(-c3cc(C(F)(F)F)cc(N4CC5CC4CN5)n3)c21 (stereo not drawn) [Example 85] | 0.01 to 0.0316 µM | 0.02 µM | 0.316 to 1 µM | 0.316 µM | 20 | D (a ratio of between 10 and 20) | – | –
10 | C[C@H]1CN(c2cc(C(F)(F)F)cc(-c3ccnc4c3C(C)(C)C(=O)N4)n2)CCN1 [Example 141] | 0.00316 to 0.01 µM | 0.00398 µM | 0.0316 to 0.1 µM | 0.0501 µM | 16 | D (a ratio of between 10 and 20) | – | –
11 | CCC1(C)C(=O)Nc2nccc(-c3cc(C(F)(F)F)cc(N4CCN[C@@H](C)C4)n3)c21 (stereo partly drawn) [Example 114] | 0.00316 to 0.01 µM | 0.00501 µM | 0.0316 to 0.1 µM | 0.0631 µM | 13 | D (a ratio of between 10 and 20) | – | –
12 | O=c1[nH]c2nccc(-c3cc(N4CCNCC4)ccc3F)c2[nH]1 [Example 15] | 0.316 to 1 µM | 0.501 µM | > 1 µM | 10 µM | 3 | F (a ratio of between 1 and 5) | – | –
13 | CC1C(=O)Nc2nccc(-c3cccc(N4CCNCC4)c3)c21 (stereo not drawn) [Example 5] | 0.0316 to 0.1 µM | 0.0794 µM | 0.316 to 1 µM | 0.794 µM | 4 | F (a ratio of between 1 and 5) | – | –
14 | CC[C@@]1(C)C(=O)Nc2nccc(-c3cc(Cl)cc(N4CCNC[C@H]4C)n3)c21 (single isomer, unassigned) [Example 164] | 0.001 to 0.00316 µM | 0.002 µM | 0.01 to 0.0316 µM | 0.0126 µM | 5 | F (a ratio of between 1 and 5) | – | –
15 | O=C1Nc2nccc(-c3cc(C(F)(F)F)cc(N4CCNCC4)n3)c2C12CCCC2 [Example 103] | 0.01 to 0.0316 µM | 0.0158 µM | 0.1 to 0.316 µM | 0.1 µM | 6 | E (a ratio of between 5 and 10) | – | –
16 | COc1cc(-c2ccnc3[nH]c(=O)[nH]c23)cc(N2CCNCC2)c1 [Example 9] | > 1 µM | 2 µM | > 1 µM | 1.26 µM | 1 | G (a ratio of 0 to 1) | – | –
17 | O=c1[nH]c2nccc(-c3cc(Cl)cc(N4CCNCC4)c3)c2[nH]1 [Example 10] | 0.316 to 1 µM | 0.316 µM | > 1 µM | 2 µM | 1 | F (a ratio of between 1 and 5) | – | –
18 | CC1(O)C(=O)Nc2nccc(-c3cc(F)cc(N4CCNCC4)c3)c21 (stereo not drawn) [Example 46] | 0.01 to 0.0316 µM | 0.0126 µM | 0.1 to 0.316 µM | 0.251 µM | 3 | F (a ratio of between 1 and 5) | – | –

— patent publication US20260035367A1 (Celgene Corporation, priority 2021, published 2026)
